# Like-named read-outs stand apart in the source and are kept apart here.
# Columns and labels:
# [1] = Pharmacokinetic study, single iv or oral administration in SD rats; format: in vivo; settings: for concentration at 0.25 h / concentration at 0.5 h / concentration at 1 h / concentration at 2 h / concentration at 3 h / concentration at 4 h / concentration at 6 h / concentration at 8 h / concentration at 12 h / concentration at 24 h: n = 4; for MRT last: read-out: MRT0–t
# Experimental: A total of 16 male SD rats, according to weight, were randomly divided into four groups (n = 4), a~d, as described in pharmacodynamics study: • (A) DST-3 intravenous injection of 6 mg/kg; • (B) DST-3 oral gavage of 60 mg/kg; • (C) CTS intravenous injection of 6 mg/kg; • (D) CTS oral gavage of 60 mg/kg.
# Blood collection was performed in all rats at 0.25 h, 0.5 h, 1 h, 2 h, 3 h, 4 h, 6 h, 8 h, 12 h, and 24 h after administration.
# The blank plasma for method validation was rapidly extracted from the main abdominal vein of SD rats. The sample for the pharmacokinetic study was obtained by taking 250 μL of blood from the orbit of SD rats. The blood was placed in a heparinized collection vessel, centrifuged at 3000 rpm for 10 min, and the upper plasma layer was taken.
# A 100 μL sample was precisely measured, and 10 μL of loratadine working solution and 500 μL of ethyl acetate were added for liquid–liquid-extraction. The mixture was shaken for 1 min, centrifuged for 4 min at 12,000× g, and 400 μL of the upper organic phase was vacuum dried for 2 h. Then 100 μL of mobile phase (methanol-1% formic acid water (90:10, v/v)) was added, dissolved, vortexed for 1 min, and centrifuged at low temperature for 3 min at 12,000× g. The supernatant (80 μL) was placed in a sample bottle for HPLC-MS/MS analysis.
# According to the non-compartmental model, the pharmacokinetic software DAS 2.0 was used to calculate the main pharmacokinetic parameters: maximum plasma concentration (Cmax), elimination half-life (t1/2), time to reach maximum plasma concentration (Tmax), mean residence time (MRT0–t), area under the plasma concentration curve from 0 to the last measured concentration (AUC0−t), AUC from 0 to infinity (AUC0–∞), apparent clearance rate (CL/F) and apparent distribution volume (V/F).
# [2] = tested on: MRC5 cells; assay: CCK8 cell viability assay; format: cell-based; settings: 20 μM, 48 h
# Experimental: (§1) Medical Research Council cell strain-5 (MRC5, ATCC, Manassas, VA, USA, Cat# CCL-171) was supplemented with 10% fetal bovine serum (GIBCO, Invitrogen, Carlsbad, CA, USA) in low-sugar DMEM medium (GIBCO, Invitrogen, Carlsbad, CA, USA) in an incubator containing 5% CO2 atmosphere at 37 °C.
# The cells were seeded in 96-well plates for 24 h and treated with DST-3 (1.25, 2.5, 5, 10, 20 μM) at different concentrations for 48 h. The CCK8 kit (Beyotime, Shanghai, China) was used to test the cytotoxic effect of DST-3 on MRC5 cells. Medium solution of 10% CCK8 was added to each well and incubated at 37 °C for 2 h. Absorbance was measured at 450 nm (BioTek, Elx800, Winooski, VT, USA).
# [3] = tested on: TGF-β1-stimulated MRC5 cells; assay: TGF-β1-induced fibrosis in MRC5 (α-SMA, fibronectin, type I collagen; immunofluorescence and Western blot); format: cell-based; settings: TGF-β1 5 ng/mL, 48 h
# Experimental: as §1
# MRC5 cells were fixed in 4% paraformaldehyde for 0.5 h, then permeated with 1% Triton X-100 (Sangon Biotech, Shanghai, China) for 10 min, and blocked with goat serum (BOSTER, Wuhan, China) for 1 h. The cells were then incubated with α-SMA or STAT3 (1:100 diluted) primary antibody overnight at 4 °C and secondary antibody at room temperature for 1 h. The nuclei were stained at room temperature with Hoechst 33,342 (1:100 diluted) for 10 min. Fluorescence images were captured using a laser scanning ultra-high resolution microscope (FV3000, Olympus Corporation, Tokyo, Japan).
# MRC5 cells or lung tissues were washed with cold PBS and then lysed on ice using RIPA buffer (Beyotime Biotechnology, Shanghai, China) supplemented with protease and phosphatase inhibitors (Bimake, Boston, USA) for 0.5 h and centrifuged at 4 °C at 12,000× g for 15 min. […] (BCA protein Assay Kit, Pierce, Waltham, MA, USA) was used to determine protein concentration. […] Band strength was quantified by ImageJ software (version 1.53t, Bio-Rad, Rockford, IL, USA).
# [4] = tested on: BLM-induced pulmonary fibrosis in C57BL/6 mice; assay: BLM-induced pulmonary fibrosis model; format: in vivo; settings: BLM 2 mg/kg; DST-3 15–60 mg/kg, CTS 30 mg/kg oral
# From the text: Sixty male Sprague-Dawley (SD) rats were individually weighed one day prior to administration and randomly assigned to six groups (n = 10 per group) using a stratified randomization method to ensure balanced average body weights across groups (weight range: 220–260 g; inter-group mean weight difference < 5 g). The vehicle used for […] administration of both CTS and DST-3 was 0.5% sodium carboxymethyl cellulose (CMC-Na) solution. A–F: • (A) Normal saline + CMC–Na; • (B) BLM + 0.5% CMC–Na; • (C) BLM + DST-3 15 mg/kg; • (D) BLM + DST-3 30 mg/kg; • (E) BLM + DST-3 60 mg/kg; • (F) BLM + CTS 30 mg/kg.
# Pulmonary fibrosis was induced in groups B–F by tracheal infusion of bleomycin 2 mg/kg, and in group A by normal saline. To create a suspension for oral administration, all DST-3 or CTS were dissolved in 0.5% CMC-Na. […]
# HYP was specifically detected in collagen as a posttranslational product of proline hydroxylation. […] In this study, the content of HYP in lung tissue was determined by alkaline hydrolyzation. […] Each sample was measured at 550 nm to detect the absorbance, and the HYP content was calculated according to the following formula: Hydroxproline content (μg/mg) =Measured OD value -Blank OD value/Standard OD value -Blank OD value× Stand content ×Lysate total volume (mL)/Organization wet weight (mg) […]
# [5] = cited from earlier work
# [6] = male, rat, plasma, iv 6 mg/kg, n = 4, mean ± SD
# [7] = male, rat, plasma, oral 60 mg/kg
# [8] = male, rat, plasma, po, ig 60 mg/kg, n = 4, mean ± SD
compound,measurement,setting,value
"C[C@H]1COC2=C1C(=O)C(=O)c1c2ccc2c1CCCC2(C)C [CTS, Cryptotanshinone]",V/F,"[1]; ig 60 mg/kg, n = 4, mean ± SD",1391 ± 382.0 L
same,V/F,"[1]; iv 6 mg/kg, n = 4, mean ± SD",87.70 ± 59.30 L
same,concentration at 0.25 h,"[1]; male, rat, plasma, iv 6 mg/kg",341 ng/mL
same,concentration at 0.5 h,"[1]; male, rat, plasma, iv 6 mg/kg",167 ng/mL
same,concentration at 1 h,"[1]; male, rat, plasma, iv 6 mg/kg",91.7 ng/mL
same,concentration at 2 h,"[1]; male, rat, plasma, iv 6 mg/kg",73.9 ng/mL
same,concentration at 3 h,"[1]; male, rat, plasma, iv 6 mg/kg",62.8 ng/mL
same,concentration at 4 h,"[1]; male, rat, plasma, iv 6 mg/kg",45.7 ng/mL
same,concentration at 6 h,"[1]; male, rat, plasma, iv 6 mg/kg",29.9 ng/mL
same,concentration at 8 h,"[1]; male, rat, plasma, iv 6 mg/kg",19 ng/mL
same,concentration at 12 h,"[1]; male, rat, plasma, iv 6 mg/kg",10.2 ng/mL
same,concentration at 24 h,"[1]; male, rat, plasma, iv 6 mg/kg",4.8 ng/mL
same,AUC(0-inf),[1]; [6],671 ± 168 ng·h/mL
same,AUC(0-t),[1]; [6],631 ± 157 ng·h/mL
same,Cmax,[1]; [6],341 ± 14.9 ng/mL
same,half-life,[1]; [6],6.8 ± 3.7 h
same,MRT last,[1]; [6],5.1 ± 0.3 h
same,concentration at 0.25 h,[1]; [7],11.7 ng/mL
same,concentration at 0.5 h,[1]; [7],13.6 ng/mL
same,concentration at 1 h,[1]; [7],18.9 ng/mL
same,concentration at 2 h,[1]; [7],16.3 ng/mL
same,concentration at 3 h,[1]; [7],23 ng/mL
same,concentration at 4 h,[1]; [7],34.8 ng/mL
same,concentration at 6 h,[1]; [7],29.4 ng/mL
same,concentration at 8 h,[1]; [7],31 ng/mL
same,concentration at 12 h,[1]; [7],17.5 ng/mL
same,concentration at 24 h,[1]; [7],8.9 ng/mL
same,bioavailability,"[1]; male, rat, plasma, oral, ig 60 mg/kg vs iv 6 mg/kg, AUCig/AUCiv × 100%, read-out: absolute bioavailability",8.56%
same,AUC(0-inf),[1]; [8],574 ± 51 ng·h/mL
same,AUC(0-t),[1]; [8],458 ± 22.8 ng·h/mL
same,Cmax,[1]; [8],39.5 ± 6.8 ng/mL
same,Tmax,[1]; [8],4.5 ± 1 h
same,half-life,[1]; [8],9.3 ± 3 h
same,MRT last,[1]; [8],15.7 ± 2.8 h
same,cell viability (cytotoxicity),[2],significantly decreased
same,expression of α-SMA and ECM proteins,[3],downregulate the overexpression
same,histopathology (HE and Masson staining): inflammatory infiltration and fibrosis severity,[4],reduced inflammatory infiltration and fibrosis severity
same,oral bioavailability,[5]; CTS is a substrate of P-glycoprotein,2.05%
same,oral bioavailability,[5]; typically,below 10%

# — PMC12566936, “DST-3, a Novel Modified Cryptotanshinone, Protects Against Pulmonary Fibrosis via Inhibiting STAT3/Smad Signaling Pathway and Improves Bioavailability” (Pharmaceutics, 2025)
